Experimental data published in patent publication US20230293518A1 (Edgewise Therapeutics, Inc., priority 2020, published 2023).

Biological target: skeletal myofibrils (myosin ATPase)
Assay: Skeletal Myofibril ATPase Assay
Type: biochemical
Conditions: Table 4A
Experimental: Example 12. Skeletal Myofibril ATPase Assay
Overview: Myosin ATPase activity is assessed by using a coupled reaction system, in which ADP generated by the myosin ATPase function is coupled to the disappearance of NADH through the pyruvate kinase/lactate dehydrogenase (PK-LDH) system. ATPase activity produces ADP, which is used as a substrate for PK to produce pyruvate and regenerate ATP. The pyruvate is then used as a substrate by LDH to oxidize NADH to NAD+. The rate of the reaction is monitored through the time-dependent disappearance of NADH using absorbance at 340 nm. Inhibition of ATPase activity by the assayed compounds is indicated by a reduced rate of NADH loss, relative to vehicle-treated controls, over the experimental time window. To assess the selectivity of the assayed compounds for skeletal myofibrils, the compounds are counter-screened in cardiac myofibrils.
Materials: The following stock solutions and reagents were used in the Skeletal Myofibril ATPase Assay:
Stock Solutions of pCa buffer. Combine PIPES, CaCl2, and EGTA solutions with 70 mL of water. Adjust pH to 7.0 and bring final volume to 100 mL.
Buffer A & Buffer B. Buffers were stored on ice until use.
Skeletal Myofibril ATPase Assay Procedure: BSA, ATP, NADH, PEP, and DTT solutions were thawed at room temperature, then transferred to ice. Pellet-frozen myofibrils were transferred with approximately twice the required volume into a sufficiently large tube and capped. Myofibrils were thawed by rolling in a water bath for approximately 15 min at room temperature and cooled on ice. Buffers A and B were prepared by adjusting volumes as necessary for required number of wells and stored on ice. 0.5 μL of the compounds to be assayed were added into wells. 25 μL of Buffer A was dispensed into the wells, followed by 25 μL of Buffer B. The wells were measured for absorbance at 340 nm, using a kinetic protocol in which the wells are read every 1.5-2 min for 45 min. The slope of the data was approximated by subtracting the minimum absorbance value from the maximum value for each well. This was accomplished either in the SoftMax Pro software or in a spreadsheet program such as Excel. Using GraphPad Prism 8.0, the data was normalized by assigning a value of 100% to the 1% DMSO vehicle wells. Typically, a normalized 0% value was simply assigned to a (Max−Min) value of 0. The normalized data was fit to a Four Parameter Logistic sigmoidal equation, constraining the bottom to be 0 or greater. Compounds of Table 1, 2, and 3 were tested and results of the assay appear in Tables 4a-4c. A=IC50 is less than or equal to 10 μM; B═IC50 is greater than 10 μM and less than 100 μM; C═IC50 is greater than 100 μM.

| Structure (SMILES) | IC50 [µM] |
| --- | --- |
| CCNC(=O)Cn1nc(-c2ccc(NC34CC(C3)C4)nc2)ccc1=O [Compound I-36, 2-[3-[6-([bicyclo[1.1.1]pentan-1-yl]amino)pyridin-3-yl]-6-oxo-1,6-dihydropyridazin-1-yl]-N-ethylacetamide] | < 10 |
| CCNC(=O)Cn1nc(-c2ccc(CC(F)(F)F)nc2)ccc1=O [Compound I-37, N-ethyl-2-(6-oxo-3-(6-(2,2,2-trifluoroethyl)pyridin-3-yl)pyridazin-1(6H)-yl)acetamide] | 10 to 100 |
| O=C(Cn1nc(-c2ccc(NC34CC(C3)C4)nc2)ccc1=O)N1CCC1 [Compound I-39, 2-(2-(azetidin-1-yl)-2-oxoethyl)-6-(6-(bicyclo[1.1.1]pentan-1-ylamino)pyridin-3-yl)pyridazin-3(2H)-one] | 10 to 100 |
| CCNC(=O)Cn1nc(-c2ccc(N3CC(COC(F)(F)F)C3)nc2)ccc1=O [Compound I-40, N-ethyl-2-(6-oxo-3-(6-(3-((trifluoromethoxy)methyl)azetidin-1-yl)pyridin-3-yl)pyridazin-1(6H)-yl)acetamide] | 10 to 100 |
| CCNC(=O)Cn1nc(-c2ccc(NC34CCC(CC3)CC4)nc2)ccc1=O [Compound I-41, 2-(3-(6-(bicyclo[2.2.2]octan-1-ylamino)pyridin-3-yl)-6-oxopyridazin-1(6H)-yl)-N-ethylacetamide] | 10 to 100 |
| CCNC(=O)Cn1nc(-c2cnc(NC34CC(O)(C3)C4)nc2)ccc1=O [Compound I-42, N-ethyl-2-(3-(2-((3-hydroxybicyclo[1.1.1]pentan-1-yl)amino)pyrimidin-5-yl)-6-oxopyridazin-1(6H)-yl)acetamide] | 10 to 100 |
| CCNC(=O)Cn1nc(-c2ccc(N3CC4CC(C3)O4)nc2)ccc1=O [Compound I-43, 2-(3-(6-(6-oxa-3-azabicyclo[3.1.1]heptan-3-yl)pyridin-3-yl)-6-oxopyridazin-1(6H)-yl)-N-ethylacetamide] | 10 to 100 |
| CCNC(=O)Cn1nc(-c2ccc(NC3COC3)nc2)ccc1=O [Compound I-44, N-ethyl-2-(3-(6-(oxetan-3-ylamino)pyridin-3-yl)-6-oxopyridazin-1(6H)-yl)acetamide] | < 10 |
| CCNC(=O)Cn1nc(-c2ccc(NC3CCOCC3)nc2)ccc1=O [Compound I-45, N-ethyl-2-(6-oxo-3-(6-((tetrahydro-2H-pyran-4-yl)amino)pyridin-3-yl)pyridazin-1(6H)-yl)acetamide] | > 100 |
| O=C(Cn1nc(-c2ccc(NC34CC(C3)C4)nc2)ccc1=O)NC12CC(C1)C2 [Compound I-46, N-(bicyclo[1.1.1]pentan-1-yl)-2-(3-(6-(bicyclo[1.1.1]pentan-1-ylamino)pyridin-3-yl)-6-oxopyridazin-1(6H)-yl)acetamide] | < 10 |
| CCNC(=O)Cn1nc(-c2ccc(NC)nc2)ccc1=O [Compound I-47, N-ethyl-2-(3-(6-(methylamino)pyridin-3-yl)-6-oxopyridazin-1(6H)-yl)acetamide] | < 10 |
| CCNC(=O)Cn1nc(-c2ccc(N3CCCC3C(F)(F)F)nc2)ccc1=O (centres unmarked) [Compound I-48, N-ethyl-2-(6-oxo-3-(6-(2-(trifluoromethyl)pyrrolidin-1-yl)pyridin-3-yl)pyridazin-1(6H)-yl)acetamide] | < 10 |
| CCNC(=O)Cn1nc(-c2cnc(OCCOC(F)(F)F)nc2)ccc1=O [Compound I-49, N-ethyl-2-(6-oxo-3-(2-(2-(trifluoromethoxy)ethoxy)pyrimidin-5-yl)pyridazin-1(6H)-yl)acetamide] | 10 to 100 |
| O=C(Cn1nc(-c2cnc(NC34CC(C3)C4)nc2)ccc1=O)NC1CCC1 [Compound I-50, 2-(3-(2-(bicyclo[1.1.1]pentan-1-ylamino)pyrimidin-5-yl)-6-oxopyridazin-1(6H)-yl)-N-cyclobutylacetamide] | < 10 |
| O=C(Cn1nc(-c2cnc(OCC(F)(F)F)nc2)ccc1=O)NC12CC(C1)C2 [Compound I-51, N-(bicyclo[1.1.1]pentan-1-yl)-2-(6-oxo-3-(2-(2,2,2-trifluoroethoxy)pyrimidin-5-yl)pyridazin-1(6H)-yl)acetamide] | < 10 |
| O=C(Cn1nc(-c2ccc(NC3CCC3)nc2)ccc1=O)NC1CCC1 [Compound I-52, N-cyclobutyl-2-(3-(6-(cyclobutylamino)pyridin-3-yl)-6-oxopyridazin-1(6H)-yl)acetamide] | < 10 |
| CCNC(=O)Cn1nc(-c2ccc(NC(C)(C)C)nc2)ccc1=O [Compound I-53, 2-(3-(6-(tert-butylamino)pyridin-3-yl)-6-oxopyridazin-1(6H)-yl)-N-ethylacetamide] | < 10 |
| O=C(Cn1nc(-c2ccc(NC34CC(C3)C4)nc2)ccc1=O)NC1CCC1 [Compound I-54, 2-(3-(6-(bicyclo[1.1.1]pentan-1-ylamino)pyridin-3-yl)-6-oxopyridazin-1(6H)-yl)-N-cyclobutylacetamide] | < 10 |

Second part, the molecule after the results:

| IC50 [µM] | Structure (SMILES) |
| --- | --- |
| 10 to 100 | CCNC(=O)Cn1nc(-c2ccc(N3CC(OC(F)F)C3)nc2)ccc1=O [Compound I-55, 2-(3-(6-(3-(difluoromethoxy)azetidin-1-yl)pyridin-3-yl)-6-oxopyridazin-1(6H)-yl)-N-ethylacetamide] |
| < 10 | O=C(Cn1nc(-c2ccc(OCC(F)(F)F)nc2)ccc1=O)NC1CCC1 [Compound I-56, N-cyclobutyl-2-(6-oxo-3-(6-(2,2,2-trifluoroethoxy)pyridin-3-yl)pyridazin-1(6H)-yl)acetamide] |
| < 10 | CCNC(=O)Cn1nc(-c2cnc(NC34CC(F)(C3)C4)nc2)ccc1=O [Compound I-57, N-ethyl-2-(3-(2-((3-fluorobicyclo[1.1.1]pentan-1-yl)amino)pyrimidin-5-yl)-6-oxopyridazin-1(6H)-yl)acetamide] |
| 10 to 100 | CCNC(=O)Cn1nc(-c2ccc(NC34CC(CO)(C3)C4)nc2)ccc1=O [Compound I-58, N-ethyl-2-(3-(6-((3-(hydroxymethyl)bicyclo[1.1.1]pentan-1-yl)amino)pyridin-3-yl)-6-oxopyridazin-1(6H)-yl)acetamide] |
| < 10 | CCNC(=O)Cn1nc(-c2cnc(NC34CC(C3)C4)nc2)ccc1=O [Compound I-59, 2-[3-(2-[bicyclo[1.1.1]pentan-1-ylamino]pyrimidin-5-yl)-6-oxopyridazin-1-yl]-N-ethylacetamide] |
| < 10 | CCNC(=O)Cn1nc(-c2ccc(NC34CC(C)(C3)C4)nc2)ccc1=O [Compound I-60, N-ethyl-2-(3-(6-((3-methylbicyclo [1.1.1]pentan-1-yl)amino)pyridin-3-yl)-6-oxopyridazin-1(6H)-yl)acetamide] |
| < 10 | CCNC(=O)Cn1nc(-c2ccc(N(C)C3CCC3)nc2)ccc1=O [Compound I-61, 2-(3-(6-(cyclobutyl(methyl)amino)pyridin-3-yl)-6-oxopyridazin-1(6H)-yl)-N-ethylacetamide] |
| < 10 | CCNC(=O)Cn1nc(-c2ccc(NC3CCC3)nc2)ccc1=O [Compound I-62, 2-(3-(6-(cyclobutylamino)pyridin-3-yl)-6-oxopyridazin-1(6H)-yl)-N-ethylacetamide] |
| < 10 | CCNC(=O)Cn1nc(-c2ccc(SC)nc2)ccc1=O [Compound I-63, N-ethyl-2-(3-(6-(methylthio)pyridin-3-yl)-6-oxopyridazin-1(6H)-yl)acetamide] |
| < 10 | CCNC(=O)Cn1nc(-c2ccc(N(C)C34CC(C3)C4)nc2)ccc1=O [Compound I-64, 2-(3-(6-(bicyclo[1.1.1]pentan-1-yl(methyl)amino)pyridin-3-yl)-6-oxopyridazin-1(6H)-yl)-N-ethylacetamide] |
| > 100 | CCNC(=O)Cn1nc(-c2ccc(OC(F)F)[n+]([O-])c2)ccc1=O [Compound I-65, 2-(difluoromethoxy)-5-(1-(2-(ethylamino)-2-oxoethyl)-6-oxo-1,6-dihydropyridazin-3-yl)pyridine 1-oxide] |
| < 10 | CC[C@@H](C)NC(=O)Cn1nc(-c2ccc(OC(F)F)nc2)ccc1=O [Compound I-66, (R)-N-(sec-butyl)-2-(3-(6-(difluoromethoxy)pyridin-3-yl)-6-oxopyridazin-1(6H)-yl)acetamide] |
| < 10 | CC[C@H](C)NC(=O)Cn1nc(-c2ccc(OC(F)F)nc2)ccc1=O [Compound I-67, (S)-N-(sec-butyl)-2-(3-(6-(difluoromethoxy)pyridin-3-yl)-6-oxopyridazin-1(6H)-yl)acetamide] |
| < 10 | O=C(Cn1nc(-c2ccc(OC(F)F)nc2)ccc1=O)NC1(c2ccccc2)CCC1 [Compound I-68, 2-(3-(6-(difluoromethoxy)pyridin-3-yl)-6-oxopyridazin-1(6H)-yl)-N-(1-phenylcyclobutyl) acetamide] |
